Assay results published in US20260001928A1 (CORTERIA PHARMACEUTICALS, priority 2022, published 2026).
*1 amine or outer side, *2 acyl side, *3 side chain or, on linkers, in order; H or OH if unused. Where a SMILES comes first, the peptide text is derived from it. Side-chain parts run from the residue outwards. [ ]: non-standard residue; d: D form. The star is where a group is joined. C20 diacid = O=C(O)CCCCCCCCCCCCCCCCCCC(=O)*; C18 diacid = O=C(O)CCCCCCCCCCCCCCCCC(=O)*; C16 diacid = O=C(O)CCCCCCCCCCCCCCC(=O)*; γGlu = O=C(O)[C@H](CCC(=O)[*:2])N[*:1]; NMeI = CC[C@H](C)[C@H](NC)C(=O)O; Decanoyl = CCCCCCCCCC(=O)*; Pentanoyl = CCCCC(=O)*; AEEA = NCCOCCOCC(=O)O; Aib = CC(C)(N)C(=O)O

Columns and labels:
Sprague Dawley rats = experiment: Effect on systolic blood pressure, telemetry in Sprague Dawley rats; format: in vivo, rat; conditions: 0.1 mg/kg SC; for Systolic blood pressure (Mean) % change from baseline, 8 h / Systolic blood pressure (Mean) % change from baseline, 12 h / Systolic blood pressure (Mean) % change from baseline, 24 h: n=2; for Duration of action: last time point with an effect on BP still observed
Experimental: The effect of the compounds on systolic blood pressure was determined in telemetry studies in Sprague Dawley rats at a dosage of 0.1 mg/kg SC.
The rats were previously implanted with a telemetry device (DSI, Saint-Paul, USA, HD-S10, HD-S11 or HD S21) and allowed to recover for a minimum period of 2 weeks before treatment with vehicle or the different peptides. Blood pressure (BP) was recorded through a catheter inserted into the abdominal aorta. The device body was placed in the abdomen. The animals were allowed to recover from surgery for at least 10 days before the first administration of test drug or vehicle.
The chronically instrumented rats of the telemetry studies were individually housed immediately after surgery and then housed in pairs with a non-instrumented companion after recovery.
Systolic blood pressure was recorded for one hour before treatment (basal period). Thereafter, the subcutaneous administration of the test compound or its vehicle was performed, under continuous recording of the signal up to 48 hours, analysed and expressed as % change from baseline.
Representative data are presented in Table 13 below, in which “Duration of action” indicates the last time point for which an effect on BP was still observed (n=2 animals/peptide)

human CRF2a receptor = biological target: T1, human CRF2a receptor (Homo sapiens, UniProt Q13324); experiment: Activity at human CRF2a receptor, cAMP functional assay in TeloHEAC cells; format: cell-based; conditions: TeloHEAC cells stably expressing human CRF2a receptor, relative to urocortin 2 (100 nM = 100%)
T1 construct: expressed in transfected cells; host or cells: TeloHEAC cells
T1 sequence (Q13324 1-411): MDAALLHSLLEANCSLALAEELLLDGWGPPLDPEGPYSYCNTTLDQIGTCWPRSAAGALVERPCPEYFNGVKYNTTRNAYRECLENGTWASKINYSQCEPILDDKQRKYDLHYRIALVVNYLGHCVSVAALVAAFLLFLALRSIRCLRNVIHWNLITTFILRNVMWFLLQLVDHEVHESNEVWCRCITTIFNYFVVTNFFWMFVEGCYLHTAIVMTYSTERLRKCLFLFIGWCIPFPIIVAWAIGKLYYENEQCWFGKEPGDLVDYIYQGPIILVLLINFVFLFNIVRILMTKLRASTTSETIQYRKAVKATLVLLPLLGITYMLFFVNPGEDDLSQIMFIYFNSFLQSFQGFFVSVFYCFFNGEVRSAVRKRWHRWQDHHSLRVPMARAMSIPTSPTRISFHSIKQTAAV
Procedure, shortened: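 TeloHEAC cells stably expressing human CRF2a (10000 cells/well) were treated with 16-point 1:2 compound dilutions in HBSS/20 mM HEPES with IBMX for 30 min at 37° C. cAMP was read by HTRF (665/620 nm ratio). EC50 was the concentration giving 50% activation, with 100 nM urocortin 2 set as 100%.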

CFR1R receptor = biological target: T2, CFR1R receptor (Homo sapiens, UniProt P34998); experiment: Activity at anti-target CFR1R receptor, cAMP assay in CRF1R-overexpression CHO-K1 cells; format: cell-based; conditions: 100% = Sauvagine at 100 nM; for EC50: cAMP
T2 construct: host or cells: CHO-K1 (clone 2)
T2 sequence (P34998 24-415): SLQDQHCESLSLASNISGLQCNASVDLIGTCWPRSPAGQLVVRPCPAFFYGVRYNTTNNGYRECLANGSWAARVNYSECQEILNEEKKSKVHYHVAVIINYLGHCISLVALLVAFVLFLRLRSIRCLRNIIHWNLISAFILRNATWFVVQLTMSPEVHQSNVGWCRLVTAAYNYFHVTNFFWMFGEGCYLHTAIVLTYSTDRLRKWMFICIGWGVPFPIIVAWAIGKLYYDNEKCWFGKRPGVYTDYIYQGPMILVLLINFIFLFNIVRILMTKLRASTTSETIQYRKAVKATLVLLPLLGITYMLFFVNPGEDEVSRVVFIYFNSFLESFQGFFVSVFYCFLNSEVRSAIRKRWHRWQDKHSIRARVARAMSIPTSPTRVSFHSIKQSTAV
Procedure, shortened: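 Signal is normalised to 100 nM Sauvagine, taken as 100% activation, in clone 2 cells plated at a final 4000 cells/well from frozen stocks.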

| Structure (SMILES) | Systolic blood pressure (Mean) % change from baseline, 8 h (Sprague Dawley rats) | Systolic blood pressure (Mean) % change from baseline, 12 h (Sprague Dawley rats) | Systolic blood pressure (Mean) % change from baseline, 24 h (Sprague Dawley rats) | Duration of action (Sprague Dawley rats) | EC50 (human CRF2a receptor) | Emax (% I) (CFR1R receptor) | EC50 (CFR1R receptor) |
| --- | --- | --- | --- | --- | --- | --- | --- |
| CCCCCCCCCC(=O)N[C@H](C(=O)N[C@@H](CC(C)C)C(=O)N[C@@H](CO)C(=O)N[C@@H](CC(C)C)C(=O)N[C@@H](CC(=O)O)C(=O)N[C@@H](C(=O)N1CCC[C@H]1C(=O)N[C@H](C(=O)N[C@@H](CCCCN)C(=O)N[C@@H](CC(C)C)C(=O)N[C@@H](CCCCNC(=O)CC[C@H](NC(=O)CCCCCCCCCCCCCCC(=O)O)C(=O)O)C(=O)N[C@@H](CCCCN)C(=O)N[C@H](C(=O)N[C@@H](CC(C)C)C(=O)N[C@@H](CC(C)C)C(=O)N[C@@H](CCC(=O)O)C(=O)N[C@@H](CCC(N)=O)C(=O)N[C@@H](CCC(=O)O)C(=O)N[C@@H](CCCCN)C(=O)N[C@@H](CCC(N)=O)C(=O)N[C@@H](CCCCN)C(=O)N[C@@H](CCCCN)C(=O)N[C@@H](CCC(N)=O)C(=O)N[C@@H](CCCNC(=N)N)C(=O)N[C@@H](CCC(=O)O)C(=O)N[C@@H](CCC(N)=O)C(=O)N[C@@H](C)C(=O)N[C@@H](CCC(=O)O)C(=O)N[C@H](C(=O)N[C@@H](CC(N)=O)C(=O)NC(C)(C)C(=O)N[C@@H](CCC(N)=O)C(=O)N[C@H](C(=O)N[C@@H](CC(C)C)C(=O)N[C@@H](C)C(=O)N[C@@H](CCC(N)=O)C(=O)N[C@H](C(N)=O)C(C)C)[C@@H](C)CC)[C@@H](C)O)[C@@H](C)CC)[C@@H](C)CC)C(C)C)C(C)C [compound 158] (Decanoyl-VLSLD[dV]PIKLK([γGlu-C16 diacid])KILLEQEKQKKQREQAETN[Aib]QILAQV-NH2) | −11% | −7% | 3% | 23 h | 0.04 nM | 54 % I |  |
| CC[C@H](C)[C@H](NC)C(=O)N[C@H](C(=O)N[C@@H](CC(C)C)C(=O)N[C@@H](CO)C(=O)N[C@@H](CC(C)C)C(=O)N[C@@H](CC(=O)O)C(=O)N[C@@H](C(=O)N1CCC[C@H]1C(=O)N[C@H](C(=O)NCC(=O)N[C@@H](CC(C)C)C(=O)N[C@@H](CCCCNC(=O)CC[C@H](NC(=O)CCCCCCCCCCCCCCCCCCC(=O)O)C(=O)O)C(=O)N[C@@H](CCCCN)C(=O)N[C@H](C(=O)N[C@@H](CC(C)C)C(=O)N[C@@H](CC(C)C)C(=O)N[C@@H](CCC(=O)O)C(=O)N[C@@H](CCC(N)=O)C(=O)N[C@@H](CCC(=O)O)C(=O)N[C@@H](CCCCN)C(=O)N[C@@H](CCC(N)=O)C(=O)N[C@@H](CCCCN)C(=O)N[C@@H](CCCCN)C(=O)N[C@@H](CCC(N)=O)C(=O)N[C@@H](CCCNC(=N)N)C(=O)N[C@@H](CCC(=O)O)C(=O)N[C@@H](CCC(N)=O)C(=O)N[C@@H](C)C(=O)N[C@@H](CCC(=O)O)C(=O)N[C@H](C(=O)N[C@@H](CC(N)=O)C(=O)NC(C)(C)C(=O)N[C@@H](CCC(N)=O)C(=O)N[C@H](C(=O)N[C@@H](CC(C)C)C(=O)N[C@@H](C)C(=O)N[C@@H](CCC(N)=O)C(=O)N[C@H](C(N)=O)C(C)C)[C@@H](C)CC)[C@@H](C)O)[C@@H](C)CC)[C@@H](C)CC)C(C)C)C(C)C [compound 229] (H-[NMeI]VLSLD[dV]PIGLK([γGlu-C20 diacid])KILLEQEKQKKQREQAETN[Aib]QILAQV-NH2) | −12% | −9% | −5% | >24 h | 0.11 nM | 43 % I |  |
| CC[C@H](C)[C@H](NC(C)=O)C(=O)N[C@H](C(=O)N[C@@H](CC(C)C)C(=O)N[C@@H](CO)C(=O)N[C@@H](CC(C)C)C(=O)N[C@@H](CC(=O)O)C(=O)N[C@@H](C(=O)N1CCC[C@H]1C(=O)N[C@H](C(=O)N[C@@H](CCCCN)C(=O)N[C@@H](CC(C)C)C(=O)N[C@@H](CCCCNC(=O)COCCOCCNC(=O)CC[C@H](NC(=O)CCCCCCCCCCCCCCCCCCC(=O)O)C(=O)O)C(=O)N[C@@H](CCCCN)C(=O)N[C@H](C(=O)N[C@@H](CC(C)C)C(=O)N[C@@H](CC(C)C)C(=O)N[C@@H](CCC(=O)O)C(=O)N[C@@H](CCC(N)=O)C(=O)N[C@@H](CCC(=O)O)C(=O)N[C@@H](CCCCN)C(=O)N[C@@H](CCC(N)=O)C(=O)N[C@@H](CCCCN)C(=O)N[C@@H](CCCCN)C(=O)N[C@@H](CCC(N)=O)C(=O)N[C@@H](CCCNC(=N)N)C(=O)N[C@@H](CCC(=O)O)C(=O)N[C@@H](CCC(N)=O)C(=O)N[C@@H](C)C(=O)N[C@@H](CCC(=O)O)C(=O)N[C@H](C(=O)N[C@@H](CC(N)=O)C(=O)NC(C)(C)C(=O)N[C@@H](CCC(N)=O)C(=O)N[C@H](C(=O)N[C@@H](CC(C)C)C(=O)N[C@@H](C)C(=O)N[C@@H](CCC(N)=O)C(=O)N[C@H](C(N)=O)C(C)C)[C@@H](C)CC)[C@@H](C)O)[C@@H](C)CC)[C@@H](C)CC)C(C)C)C(C)C [compound 230] (Ac-IVLSLD[dV]PIKLK([AEEA-γGlu-C20 diacid])KILLEQEKQKKQREQAETN[Aib]QILAQV-NH2) | −15% | −16% | 3% | 23 h | 0.16 nM | 30 % I | > 250 nM |
| CCCCC(=O)N[C@H](C(=O)N[C@@H](CC(C)C)C(=O)N[C@@H](CO)C(=O)N[C@@H](CC(C)C)C(=O)N[C@@H](CC(=O)O)C(=O)N[C@@H](C(=O)N1CCC[C@H]1C(=O)N[C@H](C(=O)N[C@@H](CCCCN)C(=O)N[C@@H](CC(C)C)C(=O)N[C@@H](CCCCNC(=O)CC[C@H](NC(=O)CCCCCCCCCCCCCCCCC(=O)O)C(=O)O)C(=O)N[C@@H](CCCCN)C(=O)N[C@H](C(=O)N[C@@H](CC(C)C)C(=O)N[C@@H](CC(C)C)C(=O)N[C@@H](CCC(=O)O)C(=O)N[C@@H](CCC(N)=O)C(=O)N[C@@H](CCC(=O)O)C(=O)N[C@@H](CCCCN)C(=O)N[C@@H](CCC(N)=O)C(=O)N[C@@H](CCCCN)C(=O)NC(C)(C)C(=O)N[C@@H](CCC(N)=O)C(=O)N[C@@H](CCCNC(=N)N)C(=O)N[C@@H](CCC(=O)O)C(=O)N[C@@H](CCC(N)=O)C(=O)N[C@@H](C)C(=O)N[C@@H](CCC(=O)O)C(=O)N[C@H](C(=O)N[C@@H](CC(N)=O)C(=O)NC(C)(C)C(=O)N[C@@H](CCC(N)=O)C(=O)N[C@H](C(=O)N[C@@H](CC(C)C)C(=O)N[C@@H](C)C(=O)N[C@@H](CCC(N)=O)C(=O)N[C@H](C(N)=O)C(C)C)[C@@H](C)CC)[C@@H](C)O)[C@@H](C)CC)[C@@H](C)CC)C(C)C)C(C)C [compound 194] (Pentanoyl-VLSLD[dV]PIKLK([γGlu-C18 diacid])KILLEQEKQK[Aib]QREQAETN[Aib]QILAQV-NH2) | −13% | −3% | 18% | 19 h | 0.44 nM | 10 % I | > 250 nM |
